Experimental data: paper PMC9718779, “Discrete LAT condensates encode antigen information from single pMHC:TCR binding events” (Nature Communications, 2022)

System: LAT condensation in primary mouse T cells
Assay: Ligand potency for LAT condensation (cumulative distinct LAT condensates per cell)
Format: cell-based
Text: Single-molecule TIRF images are taken at the same power dosage (power*exposure) , either by high laser illumination intensity (8 mW) and short exposure time (25 ms) or by low laser illumination intensity (0.4 mW) and long exposure time (500 ms). Single-molecule TIRF images of long exposure time (500 ms) were collected every 2 to 4 s to localize single pMHC-TCR using a laser illumination intensity of 0.4 mW. LAT-eGFP was monitored at 0.4 mW every 2 to 4 s. When cells were imaged to measure LAT condensation only, the cells were imaged as they landed, or within 60 s of landing, for a duration of 300 s. Cells imaged for NFAT-mCherry was done by epifluorescence using 150-ms exposure time every 50 s at 3 and 6 μm above the coverslip to monitor NFAT dynamics. NFAT monitoring continued for 30 min unless otherwise stated.
LAT condensates were initially tracked with TrackMate’s automated workflows and then each track was manually adjusted for proper linking/detection. A pMHC binding event was considered productive if there existed a LAT condensate trajectory whose first frame of detection could be found within 250 nm of the binding event.
Data presented in Fig. 5 originated from T cells that were exposed to supported membranes containing 600 molecules μm^−2 of ICAM-1 and 0.5 molecules μm^−2 pMHC after loading MHC with one of the peptides from the panel. […]

## ANERAELIAYLTQAAEK [T102E, null altered peptide]
MCC, T102S, ER60, T102E, cumulative time-series Fig. 5b
  rank of productivity in LAT condensate number: least
Versus ICAM-1 only
  LAT signal of null pMHC + ICAM-1 condition: did not produce any LAT signal over background levels
